Test results: PubChem BioAssay AID212 (DTP/NCI, 2004)
Where “and” joins values, the source holds several entries; their conditions need not be identical. Equal entries are not always repeated. Inconclusive results are not listed. *1 amine or outer side, *2 acyl side, *3 side chain or, on linkers, in order; H or OH if unused. Where a SMILES comes first, the peptide text is derived from it. [ ]: non-standard residue; d: D form. The star is where a group is joined. X2 = CCC(=O)CC1CC(C)CC(C(=O)[*:2])N1[*:1]; X1 = CCCCCCCCC(C)C(=O)*; Aib = CC(C)(N)C(=O)O; X3 = CC(CN(C)CCO)N*

System: BDF1 mice, colon carcinoma 38 sc, T/C %
Test: NCI In Vivo Anticancer Drug Screen. Data for tumor model Colon Carcinoma 38 (subcutaneous) in B6D2F1 (BDF1) mice
Settings: endpoint: median tumor weight (est.), higher = larger tumour
Outline: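 T/C readout: treated group (T) measurement over vehicle control group (C) measurement. Endpoint is survival or tumor size in mice bearing a transplanted tumor.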

[1] = dose: 12.5 mg/kg/injection, schedule: Q07DX002 (ip), vehicle: saline
[2] = dose: 50.0 mg/kg/injection, schedule: Q07DX002 (ip), vehicle: saline
[3] = dose: 100.0 mg/kg/injection, schedule: Q07DX002 (ip), vehicle: saline
[4] = dose: 200.0 mg/kg/injection, schedule: Q07DX002 (ip), vehicle: saline
[5] = dose: 25.0 mg/kg/injection, schedule: Q07DX002 (ip), vehicle: saline
[6] = dose: 5.0 mg/kg/injection, schedule: Q07DX002 (ip), vehicle: Klucel (hydroxypropylcellulose) (HPC)
[7] = dose: 10.0 mg/kg/injection, schedule: Q07DX002 (ip), vehicle: Klucel (hydroxypropylcellulose) (HPC)
[8] = dose: 20.0 mg/kg/injection, schedule: Q07DX002 (ip), vehicle: Klucel (hydroxypropylcellulose) (HPC)
[9] = dose: 25.0 mg/kg/injection, schedule: Q07DX002 (ip), vehicle: saline with Tween-80
[10] = dose: 50.0 mg/kg/injection, schedule: Q07DX002 (ip), vehicle: saline with Tween-80
[11] = dose: 6.25 mg/kg/injection, schedule: Q07DX002 (ip), vehicle: saline with Tween-80
[12] = dose: 12.5 mg/kg/injection, schedule: Q07DX002 (ip), vehicle: saline with Tween-80
[13] = dose: 100.0 mg/kg/injection, schedule: Q07DX002 (ip), vehicle: saline with Tween-80
[14] = dose: 200.0 mg/kg/injection, schedule: Q07DX002 (ip), vehicle: saline with Tween-80
[15] = dose: 400.0 mg/kg/injection, schedule: Q07DX002 (ip), vehicle: saline with Tween-80
[16] = dose: 1.25 mg/kg/injection, schedule: Q07DX002 (ip), vehicle: Klucel (hydroxypropylcellulose) (HPC)
[17] = dose: 3.12 mg/kg/injection, schedule: Q07DX002 (ip), vehicle: saline with Tween-80

SMILES: O=C[C@@H](CO)O[C@H](C=O)c1c[nH]c(=O)[nH]c1=O
- T/C [1]: 121 % of control
- T/C [2]: 83 % of control
- T/C [3]: 121 % of control
- T/C [4]: 57 % of control

SMILES: [Cl][Mn][Cl]
- T/C (dose: 3.0 mg/kg/injection, schedule: Q07DX002 (ip), vehicle: saline): 118 % of control
- T/C (dose: 4.0 mg/kg/injection, schedule: Q07DX002 (ip), vehicle: saline): 97 % of control
- T/C (dose: 6.0 mg/kg/injection, schedule: Q07DX002 (ip), vehicle: saline): 92 % of control
- T/C (dose: 8.0 mg/kg/injection, schedule: Q07DX002 (ip), vehicle: saline): 81 % of control
- T/C (dose: 12.0 mg/kg/injection, schedule: Q07DX002 (ip), vehicle: saline): 119 % of control
- T/C (dose: 32.0 mg/kg/injection, schedule: Q07DX002 (ip), vehicle: saline): 95 % of control and 96 % of control
- T/C (dose: 48.0 mg/kg/injection, schedule: Q07DX002 (ip), vehicle: saline): 119 % of control
- T/C (dose: 64.0 mg/kg/injection, schedule: Q07DX002 (ip), vehicle: saline): 75 % of control
- T/C (dose: 96.0 mg/kg/injection, schedule: Q07DX002 (ip), vehicle: saline): 115 % of control
- T/C (dose: 128.0 mg/kg/injection, schedule: Q07DX002 (ip), vehicle: saline): 78 % of control

SMILES: C1CC[N-]CC1.C1CC[N-]CC1.C1CC[N-]CC1.[Cl][Rh]([Cl])[Cl]
- T/C [5]: 105 % of control
- T/C [3]: 120 % of control and 124 % of control
- T/C [4]: 92 % of control

SMILES: O=C(O)CC(NC(=O)CP(=O)(O)O)C(=O)O.[NH-]C1CCCCC1[NH-].[Pt+2] (stereo not drawn)
- T/C (dose: 1.56 mg/kg/injection, schedule: Q07DX002 (ip), vehicle: dextrose): 103 % of control
- T/C (dose: 3.12 mg/kg/injection, schedule: Q07DX002 (ip), vehicle: dextrose): 77 % of control and 87 % of control
- T/C (dose: 6.25 mg/kg/injection, schedule: Q07DX002 (ip), vehicle: dextrose): 85 % of control and 90 % of control
- T/C (dose: 12.5 mg/kg/injection, schedule: Q07DX002 (ip), vehicle: dextrose): 64 % of control and 65 % of control
- T/C (dose: 25.0 mg/kg/injection, schedule: Q07DX002 (ip), vehicle: dextrose): 44 % of control and 54 % of control
- T/C (dose: 50.0 mg/kg/injection, schedule: Q07DX002 (ip), vehicle: dextrose): 14 % of control

SMILES: CCN(CC)CC(C)(C)C(=O)/C=C/c1ccccc1
- T/C (dose: 62.5 mg/kg/injection, schedule: Q07DX002 (ip), vehicle: saline): 102 % of control
- T/C (dose: 125.0 mg/kg/injection, schedule: Q07DX002 (ip), vehicle: saline): 52 % of control

SMILES: c1ccc2c(NCCCCCCCCNc3c4ccccc4nc4ccccc34)c3ccccc3nc2c1
- T/C [6]: 109 % of control and 101 % of control
- T/C [7]: 78 % of control and 93 % of control
- T/C [8]: 75 % of control and 77 % of control
- T/C (dose: 40.0 mg/kg/injection, schedule: Q07DX002 (ip), vehicle: Klucel (hydroxypropylcellulose) (HPC)): 72 % of control and 87 % of control
- T/C (dose: 80.0 mg/kg/injection, schedule: Q07DX002 (ip), vehicle: Klucel (hydroxypropylcellulose) (HPC)): 79 % of control and 100 % of control

SMILES: CC[C@](C)(O)C(=O)O[C@H]1C(=O)O[C@@H]2C[C@H]3C(C)=CC(=O)[C@@H](O)[C@]3(C)[C@H]3[C@@]4(O)OC[C@]32[C@@H]1[C@@H](C)[C@H]4O
- T/C (dose: 0.13 mg/kg/injection, schedule: Q07DX002 (ip), vehicle: saline with Tween-80): 91 % of control
- T/C (dose: 0.25 mg/kg/injection, schedule: Q07DX002 (ip), vehicle: saline with Tween-80): 90 % of control
- T/C (dose: 0.5 mg/kg/injection, schedule: Q07DX002 (ip), vehicle: saline with Tween-80): 60 % of control
- T/C (dose: 1.0 mg/kg/injection, schedule: Q07DX002 (ip), vehicle: saline with Tween-80): 62 % of control
- T/C (dose: 2.0 mg/kg/injection, schedule: Q07DX002 (ip), vehicle: saline with Tween-80): 47 % of control

SMILES: CCCCOCN(COCCCC)C(C)Cc1ccccc1 (stereo not drawn)
- T/C [9]: 85 % of control and 106 % of control
- T/C [10]: 120 % of control and 99 % of control

SMILES: CC(=O)N(C)c1ccc(Nc2cc(C)[nH]c3ccc4ncnc4c23)cc1
- T/C [1]: 118 % of control and 104 % of control
- T/C [5]: 74 % of control and 80 % of control

SMILES: COC1CC(C)C(OC)c2cc(O)cc(c2O)NC(=O)/C(C)=C/C=C\C(C)C(OC(N)=O)/C(C)=C\C(C)C1OC (stereo not drawn)
- T/C (dose: 3.13 mg/kg/injection, schedule: Q07DX002 (ip), vehicle: saline + alcohol): 114 % of control
- T/C (dose: 12.5 mg/kg/injection, schedule: Q07DX002 (ip), vehicle: saline + alcohol): 69 % of control
- T/C (dose: 25.0 mg/kg/injection, schedule: Q07DX002 (ip), vehicle: saline + alcohol): 94 % of control

SMILES: CCOC1=Cc2c(oc3c(C(C)(C)C)cc(OCC)cc23)OC(C(C)(C)C)=C1
- T/C (dose: 0.78 mg/kg/injection, schedule: Q07DX002 (ip), vehicle: saline with Tween-80): 94 % of control
- T/C (dose: 1.56 mg/kg/injection, schedule: Q07DX002 (ip), vehicle: saline with Tween-80): 102 % of control
- T/C [11]: 83 % of control (2×) and 88 % of control
- T/C [12]: 64 % of control and 65 % of control
- T/C [9]: 55 % of control and 64 % of control
- T/C [10]: 51 % of control and 65 % of control
- T/C [13]: 72 % of control and 77 % of control

SMILES: OCCOCC(F)(F)F
- T/C [9]: 86 % of control
- T/C [14]: 120 % of control and 104 % of control
- T/C [15]: 116 % of control and 102 % of control

SMILES: Cc1ncc([N+](=O)[O-])n1CCSC(N)=O
- T/C (dose: 12.5 mg/kg/injection, schedule: Q07DX003 (ip), vehicle: saline with Tween-80): 111 % of control
- T/C (dose: 25.0 mg/kg/injection, schedule: Q07DX003 (ip), vehicle: saline with Tween-80): 164 % of control
- T/C (dose: 100.0 mg/kg/injection, schedule: Q07DX003 (ip), vehicle: saline with Tween-80): 108 % of control

SMILES: O=C(Nc1nncs1)c1ccncc1
- T/C [12]: 93 % of control and 98 % of control
- T/C [10]: 91 % of control and 96 % of control
- T/C [13]: 102 % of control
- T/C [14]: 81 % of control
- T/C [15]: 69 % of control and 93 % of control

SMILES: O=C1C=CC(=O)N1c1ccc(Cl)cc1
- T/C [16]: 32 % of control
- T/C [7]: 61 % of control and 73 % of control
- T/C [8]: 60 % of control and 67 % of control

SMILES: CCCCCCCCC(C)C(=O)N1CCCC1C(=O)N1C(CC(=O)CC)CC(C)CC1C(=O)NC(C)C(=O)NC(C)(C)C(=O)NC(C)(C)C(=O)NC(C(=O)NC(C)C(=O)NC(C)(C)C(=O)NC(C)(C)C(=O)NC(C)CN(C)CCO)C(C)CC (stereo not drawn) (X1-P[X2]A[Aib][Aib]IA[Aib][Aib]-X3; configuration not given here)
- T/C (dose: 0.31 mg/kg/injection, schedule: Q07DX002 (ip), vehicle: Klucel (hydroxypropylcellulose) (HPC)): 123 % of control
- T/C [16]: 86 % of control and 91 % of control
- T/C (dose: 2.5 mg/kg/injection, schedule: Q07DX002 (ip), vehicle: Klucel (hydroxypropylcellulose) (HPC)): 119 % of control
- T/C [6]: 103 % of control and 104 % of control
- T/C [7]: 102 % of control

SMILES: CCCCCC(=O)O[C@]1(C(C)=O)CC[C@H]2[C@@H]3CCC4=CC(=O)CC[C@]4(C)[C@H]3CC[C@@]21C
- T/C (dose: 25.0 mg/kg/injection, schedule: Q07DX003 (ip), vehicle: Klucel (hydroxypropylcellulose) (HPC)): 78 % of control
- T/C (dose: 50.0 mg/kg/injection, schedule: Q07DX003 (ip), vehicle: Klucel (hydroxypropylcellulose) (HPC)): 62 % of control
- T/C (dose: 100.0 mg/kg/injection, schedule: Q07DX003 (ip), vehicle: Klucel (hydroxypropylcellulose) (HPC)): 81 % of control
- T/C (dose: 200.0 mg/kg/injection, schedule: Q07DX003 (ip), vehicle: Klucel (hydroxypropylcellulose) (HPC)): 82 % of control
- T/C (dose: 400.0 mg/kg/injection, schedule: Q07DX003 (ip), vehicle: Klucel (hydroxypropylcellulose) (HPC)): 49 % of control

SMILES: O=c1cc(CCl)[nH]nc1CCl
- T/C [17]: 119 % of control
- T/C [11]: 91 % of control
- T/C [12]: 93 % of control

SMILES: CCc1ncnc2cc(OCC3CO3)c(OC)cc12 (stereo not drawn)
- T/C [5]: 93 % of control
- T/C [2]: 47 % of control

SMILES: CN1CCN(Cc2nc3cccc4c3c([n+]2[O-])-c2ccccc2-4)CC1
- T/C [17]: 72 % of control
- T/C [11]: 58 % of control
- T/C [12]: 81 % of control and 98 % of control and 106 % of control
- T/C [14]: 65 % of control and 75 % of control
- T/C [15]: 79 % of control
